“Also recorded” adds a separate entry of the source. Structures can show the parent of a compound that is named as a salt.
Assays:
[1] = Plasma levels of metabolites following single oral doses of Compound 2, dogs; type: in vivo, dog; details: for AUC(0-t) / Cmax / Tmax: dog, plasma, po
[2] = Heart and liver tissue levels of active triphosphate 4 hours after oral Compound 2, rats; type: in vivo, rat; details: 4 hours after oral dose of Compound 2
Procedure: (§1) High levels of the active TP were measured in the liver of all species tested.

[3] = Single ascending dose study of Compound 2 in healthy volunteers (Part A): safety, tolerability, pharmacokinetic; type: in vivo, human; details: healthy subjects
Procedure: Compound 2 was tested in a single ascending dose (SAD) study to measure its safety, tolerability, and pharmacokinetic in healthy subjects (Part A). Part A was a randomized, double-blind, placebo-controlled SAD study. Healthy subjects in Part A received a single dose of Compound 2 or placebo in the fasting state. Subjects were confined to the clinic from Day −1 to Day 6.
Dosing in each cohort was staggered such that 2 subjects (1 active:1 placebo) were evaluated for 48 hours after dosing before the remainder of the cohort was dosed. Each cohort received Compound 2 in ascending order. Dosing of sequential cohorts occurred based on review of available safety data (through Day 5) and plasma pharmacokinetic data (through 24 h) of the prior cohort.
As pharmacokinetic and safety data emerged from prior cohorts, doses evaluated in Cohorts 3a-4a were adjusted by increments no more than 100 mg.
Healthy volunteers in the Part A portion of the study were male and female subjects between the ages of 18 and 65. Active and placebo recipients were pooled within each Part A cohort to preserve the study blind.
(§2) Pharmacokinetic of Compound 1 and nucleoside metabolite 1-7 were measured following the single dose of Compound 2. […] Values are reported as mean±SD, except or Tmax where median (range) is reported.

[4] = Heart and liver tissue levels of active triphosphate 4 hours after oral Compound 2, monkeys; type: in vivo, monkey; details: 4 hours after oral dose of Compound 2
Procedure: as §1

[5] = Single ascending dose study of Compound 2 in GT1-HCV infected patients (Part B): safety, tolerability, pharmacokinetic; type: in vivo, human
Procedure: Subjects in Part B received a single dose of Compound 2 in the fasting state. Patients were confined to the clinic from Day −1 to Day 6.
Part B was initiated after the safety (through Day 5) and plasma pharmacokinetic (through 24 h) data review from Cohort 3a in Part A. Available safety data (through Day 5) and pharmacokinetic data (through 24 h) was reviewed for the first cohort in Part B (Cohort 1b) before enrolling subsequent Part B cohorts. Subsequent Part B cohorts were only dosed following review of available safety and pharmacokinetic data from the respective doses in Part A as well as available safety (through Day 5) from the prior Part B cohorts.
Patients infected with HCV were treatment-naïve, non-cirrhotic GT1-infected subjects with a viral load of ≥5 log10 IU/mL.
as §2
Plasma exposure of Compound 1 was dose-related while exposure of metabolite 1-7 was dose-proportional.

[6] = Solubility in biorelevant test medias (water, SGF, FaSSIF, FeSSIF)
[7] = Ambient stability (25 ± 2° C./60 ± 5% RH) of Compound 2; type: physicochemical
Procedure: Three conditions were tested: accelerated stability (40 2° C./75±5% RH) over a 6-month time period, ambient stability (25±2° C./60±5% RH) over a 9-month period, and stability under refrigerator conditions (5 3° C.) over a 9-month time period. The results for accelerated stability, ambient stability, and refrigerator conditions are shown in Table 23, Table 24, and Table 25, respectively.
After 9 months, the percentage of water in the sample was only 0.20% and the total related substance 1 impurities was only 0.02%.

[8] = Plasma profiles of Compound 2 metabolites in rats; details: rats, single oral dose of Compound 2
Procedure: The results for a single 500 mg/kg dose in rats is shown in FIG. 17 and the results for a single 30, 100, or 300 mg/kg dose in monkeys is shown in FIG. 18.

[9] = Heart and liver tissue levels of active triphosphate 4 hours after oral Compound 2, dogs; type: in vivo, dog; details: 4 hours after oral dose of Compound 2
Procedure: as §1

[10] = Part B, GT1-HCV infected patients
[11] = 25° C./60% RH, over nine months
[12] = 25 ± 2° C./60 ± 5% RH, 1st month
[13] = 25 ± 2° C./60 ± 5% RH, 3rd month
[14] = 25 ± 2° C./60 ± 5% RH, 6th month
[15] = 25 ± 2° C./60 ± 5% RH, 9th month

CNc1nc(N)nc2c1ncn2[C@@H]1O[C@H](CO[P@@](=O)(N[C@@H](C)C(=O)OC(C)C)Oc2ccccc2)[C@@H](O)[C@@]1(C)F [Compound 2, hemi-sulfate salt of isopropyl((S)-(((2R,3R,4R,5R)-5-(2-amino-6-(methylamino)-9H-purin-9-yl)-4-fluoro-3-hydroxy-4-methyltetrahydrofuran-2-yl)methoxy)(phenoxy)phosphoryl)-L-alaninate]
AUC(0-t) ([1]; 30 mg/kg): 1300 ng·h/mL | AUC(0-t) ([1]; 100 mg/kg): 10200 ng·h/mL | Cmax ([1]; 100 mg/kg): 8120 ng/mL | Tmax ([1]; 100 mg/kg): 0.5 to 1 h | AUC(0-t) ([1]; 300 mg/kg): 44300 ng·h/mL | Cmax ([1]; 300 mg/kg): 21300 ng/mL | Tmax ([1]; 300 mg/kg): 204 h | Vomiting (animals affected) ([1]; dogs, high dose group): 5/5 | Dose proportionality of Compound 1 exposures ([1]; dogs, single oral doses of Compound 2): supra-proportional | Active TP (metabolite 1-6) level in heart [2]: unquantifiable levels | Active TP (metabolite 1-6) level in liver [2]: High levels | Intensity of adverse effects ([3]; Part A): mild to moderate | Serious adverse events ([3]; Part A): No serious adverse events | Tolerability ([3]; single oral dose): well tolerated | Active TP (metabolite 1-6) level in heart [4]: unquantifiable levels | Active TP (metabolite 1-6) level in liver [4]: High levels | Intensity of adverse effects [5, 10]: mild to moderate | Serious adverse events [5, 10]: No serious adverse events | Time within which Compound 1 was absorbed and metabolized ([5]; all cohorts from Part B, single dose of Compound 2): ≤ 8 h | Tolerability ([5]; hepatitis C infected patients, single oral dose): well tolerated | Plasma exposure of Compound 1 versus dose ([5]; single dose of Compound 2): dose-related | Plasma exposure of metabolite 1-7 versus dose ([5]; single dose of Compound 2): mostly dose-proportional | Appearance in solubility test ([6]; FaSSIF): Turbid | Solubility descriptive term ([6]; FaSSIF): Slightly | Appearance in solubility test ([6]; FeSSIF): Turbid | Solubility descriptive term ([6]; FeSSIF): Slightly | Appearance in solubility test ([6]; SGF): Turbid | Solubility descriptive term ([6]; SGF): Soluble | Appearance in solubility test ([6]; Water): Turbid | Solubility descriptive term ([6]; Water): Soluble | Times more soluble in water compared to Compound 1 ([6]; Water): up to 43 times | Times more soluble than Compound 1 under SGF conditions ([6]; simulated gastric fluid (SGF)): over 6 times | Percentage of water ([7]; 25° C./60% RH, after 9 months): 0.20% | Total related substance 1 impurities ([7]; 25° C./60% RH, after 9 months): 0.02% | Related substance 2 and any isomers ([7]; 25° C./60% RH, nine months): not detected | Appearance [7, 11]: white solid | IR [7, 11]: corresponded with the reference sample | Appearance ([7]; 25 ± 2° C./60 ± 5% RH, 0 month): White | Assay ([7]; 25 ± 2° C./60 ± 5% RH, 0 month): 98.8% | IR ([7]; 25 ± 2° C./60 ± 5% RH, 0 month): correspond | Related Substance 1 Any other single impurity ([7]; 25 ± 2° C./60 ± 5% RH, 0 month): 0.01% | Related Substance 1 Total Impurities ([7]; 25 ± 2° C./60 ± 5% RH, 0 month): 0.01% | Water ([7]; 25 ± 2° C./60 ± 5% RH, 0 month): 0.45% | Appearance [7, 12]: White | Assay [7, 12]: 101.1% | Related Substance 1 Any other single impurity [7, 12]: 0.01% | Related Substance 1 Total Impurities [7, 12]: 0.02% | Water [7, 12]: 0.19% | Appearance [7, 13]: White | Assay [7, 13]: 99.6% | IR [7, 13]: correspond | Related Substance 1 Any other single impurity [7, 13]: 0.03% | Related Substance 1 Impurity B [7, 13]: 0.03% | Related Substance 1 Impurity F [7, 13]: 0.02% | Related Substance 1 Total Impurities [7, 13]: 0.11% | Water [7, 13]: 0.29% | Appearance [7, 14]: White solid | Assay [7, 14]: 99.7% | IR [7, 14]: correspond | Related Substance 1 Any other single impurity [7, 14]: 0.02% | Related Substance 1 Impurity F [7, 14]: 0.01% | Related Substance 1 Total Impurities [7, 14]: 0.05% | Water [7, 14]: 0.46% | Appearance [7, 15]: Off-white | Assay [7, 15]: 100.9% | IR [7, 15]: correspond | Related Substance 1 Any other single impurity [7, 15]: 0.02% | Related Substance 1 Total Impurities [7, 15]: 0.02% | Water [7, 15]: 0.20% | Stability ([7]; ambient conditions (25° C./60% RH), 9 months): very stable; also recorded: stable | Plasma levels of parent nucleotide prodrug [8]: very low plasma levels | Active TP (metabolite 1-6) level in heart [9]: Relatively low levels | Active TP (metabolite 1-6) level in liver [9]: High levels

From US20210087217A1, “NUCLEOTIDE HEMI-SULFATE SALT FOR THE TREATMENT OF HEPATITIS C VIRUS” (Atea Pharmaceuticals, Inc., priority 2017, published 2021)
